In the NIST ThermoML archive (doi:10.1021/je0302001):
Numbers after ± are expanded uncertainties.

Assay: mn = molality of the nth substance listed, in mol/kg
Settings: for surface tension liquid-gas: Ring tensiometer; for viscosity / speed of sound: 101.3 kPa, Liquid; for viscosity: Capillary tube (Ostwald / Ubbelohde) method

O=[N+]([O-])[O-].O=[N+]([O-])[O-].[Zn+2] [nitric acid, zinc salt] + O
Settings | speed of sound [m/s] | surface tension liquid-gas [mN/m] | viscosity [mPa·s]
273.15 K, m1 = 0.0875 | 1413 ± 3.8 | – | –
273.15 K, m1 = 0.1329 | 1413.5 ± 3.8 | – | 1.863 ± 0.021
273.15 K, m1 = 0.2263 | – | 75.65 ± 0.96 | –
273.15 K, m1 = 0.2466 | 1422.7 ± 3.9 | – | 1.905 ± 0.022
273.15 K, m1 = 0.334 | – | 75.79 ± 0.96 | –
273.15 K, m1 = 0.3388 | 1429.7 ± 3.9 | – | 1.95 ± 0.022
273.15 K, m1 = 0.6111 | 1454.8 ± 3.9 | – | 2.081 ± 0.024
273.15 K, m1 = 0.6198 | – | 76.35 ± 0.97 | –
273.15 K, m1 = 0.6405 | 1457 ± 3.9 | – | 2.103 ± 0.024
273.15 K, m1 = 0.8228 | – | 77.03 ± 0.98 | –
273.15 K, m1 = 1.113 | 1500.1 ± 4 | – | 2.431 ± 0.028
273.15 K, m1 = 1.258 | 1516.9 ± 4.1 | – | 2.573 ± 0.03
273.15 K, m1 = 1.259 | – | 78.02 ± 1 | –
273.15 K, m1 = 1.549 | – | 78.63 ± 1 | –
273.15 K, m1 = 1.551 | 1544.4 ± 4.1 | – | 2.833 ± 0.033
273.15 K, m1 = 1.818 | – | 78.99 ± 1 | –
273.15 K, m1 = 1.906 | 1578.6 ± 4.2 | – | 3.306 ± 0.038
273.15 K, m1 = 2.145 | 1600.1 ± 4.2 | – | 3.662 ± 0.043
273.15 K, m1 = 2.222 | – | 80.42 ± 1 | –
273.15 K, m1 = 2.29 | 1612.6 ± 4.3 | – | 3.902 ± 0.046
273.15 K, m1 = 2.292 | 1612.3 ± 4.3 | – | –
273.15 K, m1 = 2.344 | 1617.4 ± 4.3 | – | 3.935 ± 0.046
273.15 K, m1 = 2.526 | – | 81.29 ± 1.1 | –
273.15 K, m1 = 2.721 | – | 81.96 ± 1.1 | –
273.15 K, m1 = 2.91 | 1663.1 ± 4.4 | – | 5.033 ± 0.059
273.15 K, m1 = 3.426 | – | 83.68 ± 1.1 | –
273.15 K, m1 = 3.472 | 1707.7 ± 4.5 | – | 6.559 ± 0.078
273.15 K, m1 = 4.011 | – | 85.35 ± 1.1 | –
273.15 K, m1 = 4.075 | 1740.8 ± 4.6 | – | 8.684 ± 0.1
273.15 K, m1 = 4.231 | – | 85.77 ± 1.1 | –
273.15 K, m1 = 4.817 | 1780.2 ± 4.7 | – | 12.49 ± 0.15
273.15 K, m1 = 5.133 | – | 87.84 ± 1.2 | –
273.15 K, m1 = 5.224 | 1794 ± 4.7 | – | 15.05 ± 0.18
278.15 K, m1 = 0.0875 | 1435.8 ± 3.9 | – | –
278.15 K, m1 = 0.1329 | 1436.3 ± 3.9 | – | 1.585 ± 0.018
278.15 K, m1 = 0.2466 | 1444.2 ± 3.9 | – | 1.626 ± 0.019
278.15 K, m1 = 0.3388 | 1450.4 ± 3.9 | – | 1.667 ± 0.019
278.15 K, m1 = 0.6111 | 1472.6 ± 4 | – | 1.788 ± 0.02
278.15 K, m1 = 0.6405 | 1474.8 ± 4 | – | 1.807 ± 0.021
278.15 K, m1 = 1.113 | 1514.5 ± 4.1 | – | 2.096 ± 0.024
278.15 K, m1 = 1.258 | 1530.4 ± 4.1 | – | 2.221 ± 0.026
278.15 K, m1 = 1.551 | 1555 ± 4.1 | – | 2.436 ± 0.028
278.15 K, m1 = 1.906 | 1586.2 ± 4.2 | – | 2.838 ± 0.033
278.15 K, m1 = 2.145 | 1606.1 ± 4.3 | – | 3.15 ± 0.037
278.15 K, m1 = 2.29 | 1618.1 ± 4.3 | – | 3.351 ± 0.039
278.15 K, m1 = 2.292 | 1617.3 ± 4.3 | – | –
278.15 K, m1 = 2.344 | 1622.2 ± 4.3 | – | 3.38 ± 0.04
278.15 K, m1 = 2.91 | 1664.7 ± 4.4 | – | 4.293 ± 0.051
278.15 K, m1 = 3.472 | 1703.6 ± 4.5 | – | 5.554 ± 0.066
278.15 K, m1 = 4.075 | 1737.6 ± 4.6 | – | 7.273 ± 0.087
278.15 K, m1 = 4.817 | 1772.3 ± 4.6 | – | 10.32 ± 0.12
278.15 K, m1 = 5.224 | 1786.4 ± 4.7 | – | 12.33 ± 0.15
283.15 K, m1 = 0.0875 | 1456.4 ± 3.9 | – | –
283.15 K, m1 = 0.1329 | 1455.8 ± 3.9 | – | 1.368 ± 0.016
283.15 K, m1 = 0.2263 | – | 74.42 ± 0.94 | –
283.15 K, m1 = 0.2466 | 1463.2 ± 3.9 | – | 1.406 ± 0.016
283.15 K, m1 = 0.334 | – | 74.63 ± 0.95 | –
283.15 K, m1 = 0.3388 | 1468.8 ± 3.9 | – | 1.444 ± 0.017
283.15 K, m1 = 0.6111 | 1487.8 ± 4 | – | 1.559 ± 0.018
283.15 K, m1 = 0.6198 | – | 75.26 ± 0.96 | –
283.15 K, m1 = 0.6405 | 1491.2 ± 4 | – | 1.571 ± 0.018
283.15 K, m1 = 0.8228 | – | 75.94 ± 0.97 | –
283.15 K, m1 = 1.113 | 1526.3 ± 4.1 | – | 1.827 ± 0.021
283.15 K, m1 = 1.258 | 1540.8 ± 4.1 | – | 1.936 ± 0.022
283.15 K, m1 = 1.259 | – | 77.01 ± 0.99 | –
283.15 K, m1 = 1.549 | – | 77.42 ± 1 | –
283.15 K, m1 = 1.551 | 1564 ± 4.2 | – | 2.13 ± 0.025
283.15 K, m1 = 1.818 | – | 78.05 ± 1 | –
283.15 K, m1 = 1.906 | 1592.7 ± 4.2 | – | 2.478 ± 0.029
283.15 K, m1 = 2.145 | 1611.1 ± 4.3 | – | 2.737 ± 0.032
283.15 K, m1 = 2.222 | – | 79.29 ± 1 | –
283.15 K, m1 = 2.29 | 1618.7 ± 4.3 | – | 2.901 ± 0.034
283.15 K, m1 = 2.292 | 1619.7 ± 4.3 | – | –
283.15 K, m1 = 2.344 | 1626.1 ± 4.3 | – | 2.932 ± 0.034
283.15 K, m1 = 2.526 | – | 80.48 ± 1.1 | –
283.15 K, m1 = 2.721 | – | 80.75 ± 1.1 | –
283.15 K, m1 = 2.91 | 1665.6 ± 4.4 | – | 3.705 ± 0.044
283.15 K, m1 = 3.426 | – | 82.59 ± 1.1 | –
283.15 K, m1 = 3.472 | 1701.3 ± 4.5 | – | 4.774 ± 0.057
283.15 K, m1 = 4.011 | – | 84.21 ± 1.1 | –
283.15 K, m1 = 4.075 | 1733.5 ± 4.6 | – | 6.175 ± 0.074
283.15 K, m1 = 4.231 | – | 84.55 ± 1.1 | –
283.15 K, m1 = 4.817 | 1765.9 ± 4.6 | – | 8.641 ± 0.1
283.15 K, m1 = 5.133 | – | 86.75 ± 1.2 | –
283.15 K, m1 = 5.224 | 1779.8 ± 4.7 | – | 10.24 ± 0.12
283.15 K, m1 = 5.797 | 1795 ± 4.7 | – | –
283.15 K, m1 = 6.245 | – | 88.17 ± 1.2 | –
288.15 K, m1 = 0.0875 | 1473.6 ± 4 | – | –
288.15 K, m1 = 0.1329 | 1473.1 ± 3.9 | – | 1.195 ± 0.014
288.15 K, m1 = 0.2466 | 1479.5 ± 4 | – | 1.229 ± 0.014
288.15 K, m1 = 0.3388 | 1484.8 ± 4 | – | 1.265 ± 0.015
288.15 K, m1 = 0.6111 | 1503 ± 4 | – | 1.368 ± 0.016
288.15 K, m1 = 0.6405 | 1505.2 ± 4 | – | 1.38 ± 0.016
288.15 K, m1 = 1.113 | 1537.3 ± 4.1 | – | 1.609 ± 0.019
288.15 K, m1 = 1.258 | 1550.2 ± 4.1 | – | 1.705 ± 0.02
288.15 K, m1 = 1.551 | 1571.7 ± 4.2 | – | 1.875 ± 0.022
288.15 K, m1 = 1.906 | 1598.9 ± 4.2 | – | 2.178 ± 0.025
288.15 K, m1 = 2.145 | 1615 ± 4.3 | – | 2.403 ± 0.028
288.15 K, m1 = 2.29 | 1625 ± 4.3 | – | 2.545 ± 0.03
288.15 K, m1 = 2.292 | 1623.1 ± 4.3 | – | –
288.15 K, m1 = 2.344 | 1629.2 ± 4.3 | – | 2.57 ± 0.03
288.15 K, m1 = 2.91 | 1666 ± 4.4 | – | 3.231 ± 0.038
288.15 K, m1 = 3.472 | 1699.5 ± 4.5 | – | 4.124 ± 0.049
288.15 K, m1 = 4.075 | 1729.1 ± 4.5 | – | 5.31 ± 0.064
288.15 K, m1 = 4.817 | 1761.2 ± 4.6 | – | 7.338 ± 0.089
288.15 K, m1 = 5.224 | 1769.8 ± 4.7 | – | 8.634 ± 0.11
288.15 K, m1 = 5.797 | 1786.4 ± 4.7 | – | –
288.15 K, m1 = 6.34 | 1797.7 ± 4.7 | – | –
293.15 K, m1 = 0.2263 | – | 73.17 ± 0.93 | –
293.15 K, m1 = 0.334 | – | 73.3 ± 0.93 | –
293.15 K, m1 = 0.6198 | – | 74.02 ± 0.94 | –
293.15 K, m1 = 0.8228 | – | 74.83 ± 0.96 | –
293.15 K, m1 = 1.259 | – | 75.92 ± 0.97 | –
293.15 K, m1 = 1.549 | – | 76.32 ± 0.98 | –
293.15 K, m1 = 1.818 | – | 76.87 ± 0.99 | –
293.15 K, m1 = 2.222 | – | 78.11 ± 1 | –
293.15 K, m1 = 2.526 | – | 79 ± 1 | –
293.15 K, m1 = 2.721 | – | 79.59 ± 1 | –
293.15 K, m1 = 3.426 | – | 81.48 ± 1.1 | –
293.15 K, m1 = 4.011 | – | 83.01 ± 1.1 | –
293.15 K, m1 = 4.231 | – | 83.39 ± 1.1 | –
